System: heavy menstrual bleeding associated with uterine fibroids
Assay: Example 5A 12-week placebo-controlled study in uterine fibroids: efficacy (PBAC, volumes, NRS, UFS-QOL, anemia parameters)
Assay type: in vivo, human
Method: Study participants were Japanese women with HMB (heavy menstrual bleeding) associated with UF (uterine fibroids).
Only the largest myomas among those measurable at Visit 1 were measured throughout the study.
During the period between Visit 2 and 3, in which subjects must have experienced at least 1 regular menstrual cycle, the baseline values concerning efficacy evaluation, including PBAC scores and pain symptoms, were collected. The baseline PBAC score is the total PBAC score for the entire menstrual cycle immediately before Visit 3.
Visit 3 was on Days 1 to 5 of the second menstrual cycle after Visit 1. From Visits 3 to 7, subjects tried to visit the clinics in a fasted state and before taking the study drug.
When a dose was missed before breakfast, subjects took the study drug 30 minutes before either dinner or lunch on the same day.
Pain symptoms, other clinical symptoms and QOL were measured as secondary endpoints. Pain symptoms were evaluated in the patient diary from Visit 1 to the day before Visit 7 using the NRS score. The UFS-QOL score was used to evaluate other clinical symptoms and the QOL of subjects. Subjects completed the UFS-QOL questionnaire at Visits 3, 5, 6 and 7.
In particular, FIGS. 50-52 tabulate hemoglobin concentrations; FIG. 53 tabulates hematocrit percentages; FIG. 54 tabulates serum iron concentrations; and FIG. 55 tabulates ferritin concentrations.
PBAC scores were used in Example 5A, and provide an estimate of menstrual blood loss volume. The PBAC score was evaluated by having subjects record details related to menstrual blood loss on a PBAC score sheet distributed by the sponsor during the treatment period. […] These items represent the level of stained sanitary materials over the course of a menstrual cycle, with a total score ranging from 0 (none) to infinity. Higher scores indicate heavier blood loss. The PBAC score sheet also allows subjects to indicate: whether they experienced bleeding between periods that required sanitary protection; whether they passed clots, and if so, approximate size of the clots; whether they experienced episodes of flooding; and whether they required double protection (used both a pad and tampon simultaneously). As used in the PBAC score sheet of Example 5A, flooding is defined as overflowing, or staining, of clothing or underwear due to menstrual bleeding.
The total PBAC score was derived by summing points for each of the above.
All myoma and uterine volumes referred to herein were evaluated using transvaginal ultrasound. Specifically, the myoma volumes were calculated using the following formula: D1×D2×D3×π/6, where D1 is the longest diameter of the myoma; D2 is the longest diameter of the myoma at an angle perpendicular to D1; and D3 is the diameter of the myoma crossing the intersection of D1 and D2 perpendicular to the D1/D2 plane.

[1] = 10 mg, Week 6-12, listed as Relugolix
[2] = 10 mg, Week 12, listed as Relugolix
[3] = 20 mg, Week 6-12, listed as Relugolix

CONC(=O)Nc1ccc(-c2sc3c(c2CN(C)C)c(=O)n(-c2ccc(OC)nn2)c(=O)n3Cc2c(F)cccc2F)cc1 [Compound 1, N-(4-(1-(2,6-difluorobenzyl)-5-((dimethylamino)methyl)-3-(6-methoxy-3-pyridazinyl)-2,4-dioxo-1,2,3,4-tetrahydrothieno[2,3-d]pyrimidin-6-yl)phenyl)-N′-methoxyurea]
Amenorrhea (PBAC from Week 6 to 12 was 0), number of patients (10 mg (n = 48)): 8 n
complete response rate, uterine fibroids (10 mg or 20 mg): 21-44%
myoma volume (10 mg, Week 2): 116.68±152.833 cm^3
uterine volume (10 mg, Week 2): 305.07±265.810 cm^3
NRS score (10 mg, Week 2-6): 0.67±1.228
subjects who achieved amenorrhea (PBAC = 0) (10 mg, Week 2-6): 12.5%
subjects with total PBAC score <10 (10 mg, Week 2-6): 16.7%
NRS score (10 mg, Week 2-12): 0.63±1.217
subjects who achieved amenorrhea (PBAC = 0) (10 mg, Week 2-12): 10.4%
subjects with total PBAC score <10 (10 mg, Week 2-12): 12.5%
Fe value (serum iron) (10 mg, Week 4): 72.8 ± 40.58 µg/dL
Ht value (10 mg, Week 4): 39.48±3.327%
UFS-QOL HRQL total score (10 mg, Week 4): 11.28±10.342
UFS-QOL symptom severity score (10 mg, Week 4): 23.78±14.736
ferritin value (10 mg, Week 4): 14.71 ± 16.372 ng/mL
myoma volume (10 mg, Week 4): 90.89±108.009 cm^3
uterine volume (10 mg, Week 4): 258.10±171.703 cm^3
change of total PBAC score from baseline (10 mg, Week 6-12): −1.4±222.94
subjects who achieved amenorrhea (PBAC = 0) (10 mg, Week 6-12): 16.7%
subjects with total PBAC score <10 (10 mg, Week 6-12): 20.8%
total PBAC score (mean±SD) (10 mg, Week 6-12): 268.0±276.37
NRS score [1]: 0.6
subjects who achieved amenorrhea (PBAC = 0) [1]: (16.7) %
Fe value (serum iron) (10 mg, Week 8): 67.3 ± 34.74 µg/dL
Ht value (10 mg, Week 8): 39.43±3.154%
UFS-QOL HRQL total score (10 mg, Week 8): 13.39±13.179
UFS-QOL symptom severity score (10 mg, Week 8): 24.55±16.105
myoma volume (10 mg, Week 8): 97.47±117.339 cm^3
uterine volume (10 mg, Week 8): 259.64±190.452 cm^3
Fe value (serum iron) (10 mg, Week 12): 75.3 ± 46.94 µg/dL
Ht value (10 mg, Week 12): 39.37±3.639%
UFS-QOL HRQL total score (10 mg, Week 12): 13.01±13.270
UFS-QOL HRQL total, change from baseline (10 mg, Week 12): −1.61±10.586
UFS-QOL symptom severity score (10 mg, Week 12): 23.28±16.053
UFS-QOL symptom severity, change from baseline (10 mg, Week 12): −6.51±18.122
change of Fe value from baseline (10 mg, Week 12): 11.0 ± 42.94 µg/dL
change of Hb from baseline (10 mg, Week 12): 0.35 ± 1.055 g/dL
change of Ht value from baseline (10 mg, Week 12): 0.77±2.792%
change of ferritin value from baseline (10 mg, Week 12): -2.56 ± 6.833 ng/mL
ferritin value (10 mg, Week 12): 10.81 ± 9.489 ng/mL
myoma volume (10 mg, Week 12): 97.09±126.578 cm^3
percent change of myoma volume from baseline (10 mg, Week 12): −22.63±29.539%
percent change of uterine volume from baseline (10 mg, Week 12): −12.10±29.936%
uterine volume (10 mg, Week 12): 252.93±175.064 cm^3
UFS-QOL HRQL total, change from baseline [2]: −2
UFS-QOL symptom severity, change from baseline [2]: −7
change of Hb from baseline [2]: 0.3 g/dL
percent change of myoma volume from baseline [2]: −23%
percent change of uterine volume from baseline [2]: −12%
Amenorrhea (PBAC from Week 6 to 12 was 0), number of patients (20 mg (n = 56)): 21 n
myoma volume (20 mg, Week 2): 98.63±112.118 cm^3
uterine volume (20 mg, Week 2): 294.81±269.990 cm^3
NRS score (20 mg, Week 2-6): 0.48±0.970
subjects who achieved amenorrhea (PBAC = 0) (20 mg, Week 2-6): 33.9%
subjects with total PBAC score <10 (20 mg, Week 2-6): 42.9%
NRS score (20 mg, Week 2-12): 0.44±0.855
subjects who achieved amenorrhea (PBAC = 0) (20 mg, Week 2-12): 28.6%
subjects with total PBAC score <10 (20 mg, Week 2-12): 32.1%
Fe value (serum iron) (20 mg, Week 4): 77.4 ± 49.74 µg/dL
Ht value (20 mg, Week 4): 40.06±3.773%
UFS-QOL HRQL total score (20 mg, Week 4): 11.10±13.829
UFS-QOL symptom severity score (20 mg, Week 4): 23.12±14.327
ferritin value (20 mg, Week 4): 14.77 ± 11.536 ng/mL
myoma volume (20 mg, Week 4): 101.51±132.419 cm^3
uterine volume (20 mg, Week 4): 291.73±327.844 cm^3
NRS score (20 mg, Week 6-12): 0.35±0.618
change of total PBAC score from baseline (20 mg, Week 6-12): −153.0±194.83
subjects who achieved amenorrhea (PBAC = 0) (20 mg, Week 6-12): 38.2%
subjects with total PBAC score <10 (20 mg, Week 6-12): 43.6%
NRS score [3]: 0.4
subjects who achieved amenorrhea (PBAC = 0) [3]: (38.2) %
Fe value (serum iron) (20 mg, Week 8): 84.2 ± 49.42 µg/dL
Ht value (20 mg, Week 8): 40.39±3.389%
